Results: US7541367B2, “3-benzoimidazolyl-pyrazolopyridines useful in treating kinase disorders” (Janssen Pharmaceutica, N.V., priority 2005, dated 2009)

How the values were obtained:
HER2 = biological target: T1, HER2 (Homo sapiens, UniProt P04626); assay: HER2 kinase screening assay (33P-ATP FlashPlate); format: biochemical; settings: GST-HIS6 HER-2 aa 679 to 1255; 10 μM ATP; 1 hr at 30° C;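 also: Biotin-poly(GT) 4:1 peptide captured on streptavidin FlashPlate, 33P transfer from γ-ATP read by scintillation counting, lower incorporation means inhibition, 1% DMSO final, 100 µL reaction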
T1 construct: GST (Glutathione-S-Transferase) (N); HIS6 (N); thrombin cleavage site (N); purchased Proqinase, Freiburg, Germany

VEGF-R2 = biological target: T2, VEGF-R2 (Rattus norvegicus, UniProt O08775); assay: VEGF-R2 kinase screening assay (33P-ATP FlashPlate); format: biochemical; settings: rat VEGF-R2 kinase domain; 10 μM ATP; 1 hr at 30° C;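 also: Read-out is ³³P incorporation from ³³P-γ-ATP into biotinylated peptide substrate captured on streptavidin FlashPlate, counted by scintillation, 1% DMSO final, inhibition scaled between per-plate maximum and minimum signals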
T2 construct: polyhistidine (N)

CDK1 = biological target: T3, CDK1 (Homo sapiens, UniProt P06493); assay: CDK-1 kinase screening assay (33P-ATP FlashPlate); format: biochemical; settings: human CDK1 with cyclin B; 10 μM ATP; 1 hr at 30° C
T3 construct: purchased New England Biolabs, Beverly, Mass; 6020; host or cells: insect cells
Protocol: A kinase reaction mixture was prepared containing 50 mM Tris-HCl pH=8, 10 mM MgCl2, 0.1 mM […], 1 mM DTT, 10 μM ATP, 0.025 μM biotinylated histone-H1 peptide substrate and 0.2 μCuries per well ^33P-γ-ATP (2000-3000 Ci/mmol). 70 μL of the kinase reaction mixture was dispensed into the well of a streptavidin coated FlashPlate™ (Cat. # SMP103, NEN, Boston, Mass.).
Test compound stock in 100% DMSO (1 μL) was added to the wells resulting in a final concentration of 1% DMSO in the reaction with a 100 μL final reaction volume. Each enzyme was diluted in 50 mM Tris-HCl pH=8.0, 0.11% BSA and 30 μL was added to each well to initiate the reaction. The reaction was incubated for one hour at 30° C. At the end of the 1 hr incubation, the reaction was terminated by aspirating the mixture from the plate and washing the wells twice with PBS containing 100 mM EDTA. The biotinylated peptide substrate became immobilized on the Flashplate™ and the incorporation of ^33P-γ-ATP was measured by reading the plate on a scintillation counter. Inhibition of the enzymatic activity was measured by observing a reduced amount of ^33P-γ-ATP incorporated into the immobilized peptide.
The CDK1 enzyme was isolated from insect cells expressing both the human CDK1 catalytic subunit (Accession number NM_001786) and its positive regulatory subunit cyclin B (New England Biolabs, Beverly, Mass.; Cat. # 6020). The assay used 30 ng of the N-terminal biotinylated peptide biotin-[…]-amide (Cyclin dependent kinase 1) per well.
A maximum and minimum signal for the assay was determined on each plate. The percent inhibition of a test compound was calculated according to the formula: […]
For a series of test concentrations, the IC50 was derived by graphing percent inhibition against the log of the concentrations tested for a given compound with results shown in Table 1.
For compounds with multiple values, each value represents a separate assay result.

A375 malignant melanoma = assay: Cell Proliferation Inhibition Assay (14C-thymidine incorporation), A375; format: cell-based; settings: Homo sapiens, A-375, A375 cells;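 also: proliferation measured by radiolabelled thymidine uptake into new DNA, counted in scintillating 96-well plates, compound-treated wells compared with DMSO-only control wells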
HCT-116 colon carcinoma = assay: Cell Proliferation Inhibition Assay (14C-thymidine incorporation), HCT-116; format: cell-based; settings: Homo sapiens;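 also: proliferation measured as methyl 14C-thymidine uptake into new DNA, counted in 96-well scintillating microplates, compared with DMSO-only control wells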
[1] = system: HeLa cervical adenocarcinoma; assay: Cell Proliferation Inhibition Assay (14C-thymidine incorporation), HeLa; format: cell-based; settings: Homo sapiens, HeLa cells;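 also: test compound in DMSO added to cells seeded in scintillating 96-well plates, DMSO-only wells as control, uptake of methyl 14C-thymidine into new DNA counted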
Aurora-A = biological target: T4, Aurora-A (Mus musculus, UniProt P97477); assay: Aurora-A kinase screening assay (33P-ATP FlashPlate); format: biochemical; settings: 10 μM ATP, 1 hr at 30° C;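 also: His-tagged mouse Aurora-A phosphorylating a biotinylated peptide captured on streptavidin plates, read as 33P uptake by scintillation counting, 1% DMSO, inhibition scaled between per-plate maximum and minimum signals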
T4 construct: polyhistidine (N)
T4 sequence (P97477 1-395): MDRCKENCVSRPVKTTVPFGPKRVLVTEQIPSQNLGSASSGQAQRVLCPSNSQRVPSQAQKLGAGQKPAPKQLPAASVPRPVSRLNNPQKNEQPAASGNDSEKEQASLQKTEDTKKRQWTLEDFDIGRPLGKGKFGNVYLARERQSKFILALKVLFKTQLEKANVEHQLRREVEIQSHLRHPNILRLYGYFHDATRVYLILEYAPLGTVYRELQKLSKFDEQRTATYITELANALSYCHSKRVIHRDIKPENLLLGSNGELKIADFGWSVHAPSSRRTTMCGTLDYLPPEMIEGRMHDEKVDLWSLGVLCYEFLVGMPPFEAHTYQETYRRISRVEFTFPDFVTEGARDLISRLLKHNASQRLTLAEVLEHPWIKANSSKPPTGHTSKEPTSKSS

T3 sequence (P06493 whole entry): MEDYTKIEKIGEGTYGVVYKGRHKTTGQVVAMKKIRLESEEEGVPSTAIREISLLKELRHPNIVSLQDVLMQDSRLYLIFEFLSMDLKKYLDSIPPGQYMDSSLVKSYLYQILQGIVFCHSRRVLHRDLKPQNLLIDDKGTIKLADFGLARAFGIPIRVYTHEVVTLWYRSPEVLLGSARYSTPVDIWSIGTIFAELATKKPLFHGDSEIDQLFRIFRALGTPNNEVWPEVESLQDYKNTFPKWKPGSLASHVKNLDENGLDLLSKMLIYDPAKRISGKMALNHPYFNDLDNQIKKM
T3 sequence (P14635 whole entry partner): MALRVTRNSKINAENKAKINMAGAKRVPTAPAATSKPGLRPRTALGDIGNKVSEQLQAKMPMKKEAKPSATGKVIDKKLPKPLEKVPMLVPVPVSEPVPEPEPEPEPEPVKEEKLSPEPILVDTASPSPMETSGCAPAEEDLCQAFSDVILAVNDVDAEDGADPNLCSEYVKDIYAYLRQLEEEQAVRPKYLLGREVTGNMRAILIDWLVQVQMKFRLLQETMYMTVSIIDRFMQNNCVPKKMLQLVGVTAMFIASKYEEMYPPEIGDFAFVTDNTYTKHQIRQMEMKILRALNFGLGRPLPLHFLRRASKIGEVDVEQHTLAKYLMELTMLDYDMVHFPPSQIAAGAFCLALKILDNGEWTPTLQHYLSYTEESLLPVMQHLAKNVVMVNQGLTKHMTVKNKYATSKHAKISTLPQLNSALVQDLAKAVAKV
T1 sequence (P04626 679-1255): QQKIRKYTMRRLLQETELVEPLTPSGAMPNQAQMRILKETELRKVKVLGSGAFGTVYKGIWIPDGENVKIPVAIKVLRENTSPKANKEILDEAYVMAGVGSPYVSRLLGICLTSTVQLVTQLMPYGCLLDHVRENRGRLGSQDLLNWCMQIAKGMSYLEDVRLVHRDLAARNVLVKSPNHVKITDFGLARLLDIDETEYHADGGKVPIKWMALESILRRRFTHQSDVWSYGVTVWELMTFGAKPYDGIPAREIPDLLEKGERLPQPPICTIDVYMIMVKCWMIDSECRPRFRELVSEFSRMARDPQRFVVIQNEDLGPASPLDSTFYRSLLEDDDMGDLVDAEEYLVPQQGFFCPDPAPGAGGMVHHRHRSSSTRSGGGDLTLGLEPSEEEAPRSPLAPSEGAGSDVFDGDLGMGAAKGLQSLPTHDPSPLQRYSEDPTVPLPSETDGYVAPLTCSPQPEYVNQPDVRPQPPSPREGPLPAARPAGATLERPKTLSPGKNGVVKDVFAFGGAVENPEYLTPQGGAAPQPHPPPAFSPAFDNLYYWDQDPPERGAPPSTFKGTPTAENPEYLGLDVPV
T2 sequence (O08775 786-1343): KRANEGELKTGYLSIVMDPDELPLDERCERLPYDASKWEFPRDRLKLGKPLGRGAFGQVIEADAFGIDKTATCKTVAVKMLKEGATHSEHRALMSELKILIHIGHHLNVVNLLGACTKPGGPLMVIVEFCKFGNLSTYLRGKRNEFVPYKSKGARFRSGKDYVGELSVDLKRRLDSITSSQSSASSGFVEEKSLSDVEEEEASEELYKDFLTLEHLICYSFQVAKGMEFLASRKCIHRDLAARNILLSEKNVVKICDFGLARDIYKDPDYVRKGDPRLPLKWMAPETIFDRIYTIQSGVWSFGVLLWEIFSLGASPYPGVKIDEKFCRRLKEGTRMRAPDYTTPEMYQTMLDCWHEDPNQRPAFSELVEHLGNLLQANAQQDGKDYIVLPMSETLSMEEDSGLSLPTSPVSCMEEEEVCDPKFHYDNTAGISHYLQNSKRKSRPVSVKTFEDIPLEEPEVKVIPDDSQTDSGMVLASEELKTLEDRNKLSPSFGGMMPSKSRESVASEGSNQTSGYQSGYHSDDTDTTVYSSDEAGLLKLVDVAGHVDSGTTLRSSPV

Structure (SMILES)	IC50 (HER2) [nM]	IC50 (VEGF-R2) [nM]	IC50 (CDK1) [nM]	IC50 (A375 malignant melanoma) [nM]	IC50 (HCT-116 colon carcinoma; HCT-116, HCT-116 cells) [nM]	IC50 ([1]; HeLa) [nM]	IC50 (Aurora-A) [nM]	IC50 (HCT-116 colon carcinoma; HCT-116 cells) [nM]	IC50 [1] [nM]
c1ccc2c(-c3cnc4[nH]nc(-c5nc6ccccc6[nH]5)c4c3)cncc2c1 [Cpd 1, 4-[3-(1H-benzoimidazol-2-yl)-1H-pyrazolo[3,4-b]pyridin-5-yl]-isoquinoline]	141	1460	23.3	–	–	–	–	–	–
CCN(CC)Cc1cccc2[nH]c(-c3n[nH]c4ncc(-c5cncc6ccccc56)cc34)nc12 [Cpd 5, diethyl-[2-(5-isoquinolin-4-yl-1H-pyrazolo[3,4-b]pyridin-3-yl)-1H-benzoimidazol-4-ylmethyl]-amine]	–	1550	–	46.7	30.6	28.9	–	–	–
COCc1cccc2[nH]c(-c3n[nH]c4ncc(Br)cc34)nc12 [Cpd 11, 5-bromo-3-(4-methoxymethyl-1H-benzoimidazol-2-yl)-1H-pyrazolo[3,4-b]pyridine]	–	916	358	866	866	1840	~10000	–	–
CC(C)NC(=O)c1cccc2[nH]c(-c3n[nH]c4ncc(-c5cncc6ccccc56)cc34)nc12 [Cpd 18, 2-(5-isoquinolin-4-yl-1H-pyrazolo[3,4-b]pyridin-3-yl)-1H-benzoimidazole-4-carboxylic acid isopropylamide]	> 10000	378	3.95	64.7	41.5	35.2	> 100	–	–
CCN(CC)C(=O)c1cccc2[nH]c(-c3n[nH]c4ncc(-c5cncc6ccccc56)cc34)nc12 [Cpd 19, 2-(5-isoquinolin-4-yl-1H-pyrazolo[3,4-b]pyridin-3-yl)-1H-benzoimidazole-4-carboxylic acid diethylamide]	~100000	~10000	53.4	1570	1830	975	> 1000	–	–
CC(C)(C)NC(=O)c1cccc2[nH]c(-c3n[nH]c4ncc(-c5cncc6ccccc56)cc34)nc12 [Cpd 20, 2-(5-isoquinolin-4-yl-1H-pyrazolo[3,4-b]pyridin-3-yl)-1H-benzoimidazole-4-carboxylic acid tert-butylamide]	> 10000	~10000	28.6	71.1	55	167	~1000	–	–
CCCNCc1cncc(-c2cnc3[nH]nc(-c4nc5cc(N6CCN(C)CC6)ccc5[nH]4)c3c2)c1 [Cpd 85, (5-{3-[5-(4-methyl-piperazin-1-yl)-1H-benzoimidazol-2-yl]-1H-pyrazolo[3,4-b]pyridin-5-yl}-pyridin-3-ylmethyl)-propyl-amine]	1840	160	1.84	412	–	–	280	774	692
COCCNCc1cncc(-c2cnc3[nH]nc(-c4nc5cc(N6CCN(C)CC6)ccc5[nH]4)c3c2)c1 [Cpd 86, (2-methoxy-ethyl)-(5-{3-[5-(4-methyl-piperazin-1-yl)-1H-benzoimidazol-2-yl]-1H-pyrazolo[3,4-b]pyridin-5-yl}-pyridin-3-ylmethyl)-amine]	1050	~100	5.17	2490	–	–	428	2320	2290
CN1CCN(c2ccc3[nH]c(-c4n[nH]c5ncc(-c6cncc(CN7CCCC7)c6)cc45)nc3c2)CC1 [Cpd 87, 3-[5-(4-methyl-piperazin-1-yl)-1H-benzoimidazol-2-yl]-5-(5-pyrrolidin-1-ylmethyl-pyridin-3-yl)-1H-pyrazolo[3,4-b]pyridine]	12100	113	29.3	807	1050	2150	445	–	–
CNCc1cncc(-c2cnc3[nH]nc(-c4nc5cc6c(cc5[nH]4)OC(F)(F)O6)c3c2)c1 [Cpd 100, {5-[3-(2,2-difluoro-5H-[1,3]dioxolo[4′,5′:4,5]benzo[1,2-d]imidazol-6-yl)-1H-pyrazolo[3,4-b]pyridin-5-yl]-pyridin-3-ylmethyl}-methyl-amine]	7060	~100	1.6	52.5	237	55.1	~10000	–	–
CCCNCc1cncc(-c2cnc3[nH]nc(-c4nc5cc(OC)ccc5[nH]4)c3c2)c1 [Cpd 103, {5-[3-(5-methoxy-1H-benzoimidazol-2-yl)-1H-pyrazolo[3,4-b]pyridin-5-yl]-pyridin-3-ylmethyl}-propyl-amine]	2160	47.6	0.4	39.2	–	–	270	33.5	62.3

Continued, in another order:

IC50 (HER2) [nM]	IC50 (VEGF-R2) [nM]	IC50 (CDK1) [nM]	IC50 (A375 malignant melanoma) [nM]	IC50 (HCT-116 colon carcinoma; HCT-116, HCT-116 cells) [nM]	IC50 ([1]; HeLa) [nM]	IC50 (Aurora-A) [nM]	Structure (SMILES)	IC50 (HCT-116 colon carcinoma; HCT-116 cells) [nM]	IC50 [1] [nM]
–	–	96.7	1720	1640	3090	–	Cc1cccc2[nH]c(-c3n[nH]c4ncc(-c5cncc6ccccc56)cc34)nc12 [Cpd 2, 4-[3-(4-methyl-1H-benzoimidazol-2-yl)-1H-pyrazolo[3,4-b]pyridin-5-yl]-isoquinoline]	–	–
> 10000	238	425	1700	2500	3100	~1000	CN1CCN(c2ccc3[nH]c(-c4n[nH]c5ncc(Br)cc45)nc3c2)CC1 [Cpd 30, 5-bromo-3-[5-(4-methyl-piperazin-1-yl)-1H-benzoimidazol-2-yl]-1H-pyrazolo[3,4-b]pyridine]	–	–
> 100000	160	29.3	32.8	18.8	650	> 1000	COCc1cccc2[nH]c(-c3n[nH]c4ncc(-c5cccnc5)cc34)nc12 [Cpd 35, 3-(4-methoxymethyl-1H-benzoimidazol-2-yl)-5-pyridin-3-yl-1H-pyrazolo[3,4-b]pyridine]	–	–
> 100000	> 10	87.5	20.1	5	1840	191	COCc1cccc2[nH]c(-c3n[nH]c4ncc(-c5c[nH]c6ncccc56)cc34)nc12 [Cpd 37, 3-(4-methoxymethyl-1H-benzoimidazol-2-yl)-5-(1H-pyrrolo[2,3-b]pyridin-3-yl)-1H-pyrazolo[3,4-b]pyridine]	–	–
–	4670	106	–	–	–	8020	CCNCc1cncc(-c2cnc3[nH]nc(-c4nc5c(COC)cccc5[nH]4)c3c2)c1C [Cpd 59, ethyl-{5-[3-(4-methoxymethyl-1H-benzoimidazol-2-yl)-1H-pyrazolo[3,4-b]pyridin-5-yl]-4-methyl-pyridin-3-ylmethyl}-amine]	–	–
–	–	11.2	428	386	826	–	COC(=O)c1ccc2[nH]c(-c3n[nH]c4ncc(-c5cccnc5)cc34)nc2c1 [Cpd 91, 2-(5-pyridin-3-yl-1H-pyrazolo[3,4-b]pyridin-3-yl)-3H-benzoimidazole-5-carboxylic acid methyl ester]	–	–
–	–	–	≥ 100000	≥ 100000	≥ 100000	–	COC(=O)c1cccc2[nH]c(-c3n[nH]c4ncc(-c5cccnc5)cc34)nc12 [Cpd 93, 2-(5-pyridin-3-yl-1H-pyrazolo[3,4-b]pyridin-3-yl)-1H-benzoimidazole-4-carboxylic acid methyl ester]	–	–
